Drawing on ChEMBL document CHEMBL4602694, “Suppression of Drug-Resistant Non-Small-Cell Lung Cancer with Inhibitors Targeting Minichromosomal Maintenance Protein” (J Med Chem, 2020), this text covers Activity, IC50 and selectivity ratio for one compound.

Calls of active or inactive are those of the source. The rule behind the calls is not given here.

One may read the IC50 as the concentration needed to halve the response being measured.

The target of data set [1] is DNA replication licensing factor MCM7 (Homo sapiens) (UniProt P33993). The data set can be described thus: Induction of ubiquitination of MCM7 in human H3255 cells incubated for 24 hrs by immunoblot analysis. Type of data set: cell-based. The note with it: NCI-H3255.
Sequence of DNA replication licensing factor MCM7 (Homo sapiens) (P33993 whole entry): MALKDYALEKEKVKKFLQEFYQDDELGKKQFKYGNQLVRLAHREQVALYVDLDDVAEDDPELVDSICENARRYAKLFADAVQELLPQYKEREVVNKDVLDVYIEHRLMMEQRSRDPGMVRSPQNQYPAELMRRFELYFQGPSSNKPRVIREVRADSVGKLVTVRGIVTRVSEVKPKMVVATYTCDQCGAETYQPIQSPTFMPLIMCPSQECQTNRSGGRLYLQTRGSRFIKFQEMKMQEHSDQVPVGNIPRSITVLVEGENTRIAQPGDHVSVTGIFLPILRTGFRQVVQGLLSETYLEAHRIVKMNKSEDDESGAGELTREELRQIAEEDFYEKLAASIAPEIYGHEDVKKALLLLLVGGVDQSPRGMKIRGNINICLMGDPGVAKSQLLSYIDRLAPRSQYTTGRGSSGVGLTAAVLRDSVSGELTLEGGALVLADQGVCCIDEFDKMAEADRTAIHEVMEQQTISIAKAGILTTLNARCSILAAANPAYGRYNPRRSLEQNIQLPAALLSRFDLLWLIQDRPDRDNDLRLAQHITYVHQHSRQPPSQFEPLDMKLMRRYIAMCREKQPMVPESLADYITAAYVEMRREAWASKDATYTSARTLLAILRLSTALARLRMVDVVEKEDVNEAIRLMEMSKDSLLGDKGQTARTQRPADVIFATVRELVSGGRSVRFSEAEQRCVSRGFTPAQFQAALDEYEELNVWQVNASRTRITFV
Data set [2] relates to NCI-H1975. The data set can be described thus: Antiproliferative activity against human NCI-H1975 cells harboring FLAG-tagged MCM2 assessed as reduction in cell viability incubated for 72 hrs by SRB assay. It is filed as functional, cell-based. The conditions noted are these: NCI-H1975, 72 h. On the technique in general: The SRB assay estimates cell density from bound dye.

Data set [3] can be described thus: Toxicity in athymic nude BALB/c mouse xenografted with human NCI-H1975 cells assessed as effect on kidney at 1 or 4 mg/kg, ip administered for 4 weeks. Type of data set: organism-based. The note with it: in vivo, 672 h. In general terms: Xenograft models place foreign cells or tissue in a host animal.
The target of data set [4] is T1, DNA replication licensing factor MCM6 (Homo sapiens) (UniProt Q14566).
T1 sequence (whole entry): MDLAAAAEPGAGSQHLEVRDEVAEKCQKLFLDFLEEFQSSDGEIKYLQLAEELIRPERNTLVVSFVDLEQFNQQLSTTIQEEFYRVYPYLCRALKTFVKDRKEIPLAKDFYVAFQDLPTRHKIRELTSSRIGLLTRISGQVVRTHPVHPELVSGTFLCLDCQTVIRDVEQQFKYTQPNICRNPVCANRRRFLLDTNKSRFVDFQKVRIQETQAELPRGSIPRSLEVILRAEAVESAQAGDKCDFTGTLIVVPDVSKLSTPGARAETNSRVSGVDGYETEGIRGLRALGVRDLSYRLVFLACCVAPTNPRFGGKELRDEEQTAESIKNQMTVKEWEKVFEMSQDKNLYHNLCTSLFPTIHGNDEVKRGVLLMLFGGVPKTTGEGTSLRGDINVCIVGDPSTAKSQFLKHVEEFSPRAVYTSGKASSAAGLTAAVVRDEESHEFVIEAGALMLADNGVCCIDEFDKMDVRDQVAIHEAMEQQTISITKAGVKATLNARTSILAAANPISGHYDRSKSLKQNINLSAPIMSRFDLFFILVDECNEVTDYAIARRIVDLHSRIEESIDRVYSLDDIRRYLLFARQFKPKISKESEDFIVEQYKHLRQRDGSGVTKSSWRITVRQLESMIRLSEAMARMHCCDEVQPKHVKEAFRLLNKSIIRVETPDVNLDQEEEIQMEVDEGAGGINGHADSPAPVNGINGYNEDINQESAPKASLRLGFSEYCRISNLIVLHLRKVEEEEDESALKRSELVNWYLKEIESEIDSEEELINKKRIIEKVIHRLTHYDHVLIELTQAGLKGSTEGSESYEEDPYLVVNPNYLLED
The data set can be described thus: Induction of ubiquitination of MCM6 in human NCI-H1975 cells incubated for 48 hrs by immunoblot analysis (reference value: 1). It is filed as cell-based. A general note: Immunoblotting shows a protein as a band on a membrane.

Data set [5] can be described thus: Selectivity index, ratio of IC50 for human bronchial epithelial cells to IC50 for human PC9 cells. It is filed as toxicity. The note with it: human bronchial epithelial cells versus PC9 cells, read-out: Ratio IC50.
Data set [6] has as its target T1, DNA replication licensing factor MCM6 (Homo sapiens). Kind of data set: Induction of ubiquitination of MCM6 in human NCI-H1975 cells incubated for 24 hrs by immunoblot analysis (reference value: 1). It is filed as cell-based.
In data set [7] the target is DNA replication licensing factor MCM2 (Homo sapiens) (UniProt P49736). Kind of data set: Induction of ubiquitination of FLAG-tagged MCM2 in human 293T cells incubated for 4 hrs by magnetic beads technique based immunoblot analysis. It is filed as cell-based. The conditions noted are these: HEK-293T.
Sequence of DNA replication licensing factor MCM2 (Homo sapiens) (P49736 whole entry): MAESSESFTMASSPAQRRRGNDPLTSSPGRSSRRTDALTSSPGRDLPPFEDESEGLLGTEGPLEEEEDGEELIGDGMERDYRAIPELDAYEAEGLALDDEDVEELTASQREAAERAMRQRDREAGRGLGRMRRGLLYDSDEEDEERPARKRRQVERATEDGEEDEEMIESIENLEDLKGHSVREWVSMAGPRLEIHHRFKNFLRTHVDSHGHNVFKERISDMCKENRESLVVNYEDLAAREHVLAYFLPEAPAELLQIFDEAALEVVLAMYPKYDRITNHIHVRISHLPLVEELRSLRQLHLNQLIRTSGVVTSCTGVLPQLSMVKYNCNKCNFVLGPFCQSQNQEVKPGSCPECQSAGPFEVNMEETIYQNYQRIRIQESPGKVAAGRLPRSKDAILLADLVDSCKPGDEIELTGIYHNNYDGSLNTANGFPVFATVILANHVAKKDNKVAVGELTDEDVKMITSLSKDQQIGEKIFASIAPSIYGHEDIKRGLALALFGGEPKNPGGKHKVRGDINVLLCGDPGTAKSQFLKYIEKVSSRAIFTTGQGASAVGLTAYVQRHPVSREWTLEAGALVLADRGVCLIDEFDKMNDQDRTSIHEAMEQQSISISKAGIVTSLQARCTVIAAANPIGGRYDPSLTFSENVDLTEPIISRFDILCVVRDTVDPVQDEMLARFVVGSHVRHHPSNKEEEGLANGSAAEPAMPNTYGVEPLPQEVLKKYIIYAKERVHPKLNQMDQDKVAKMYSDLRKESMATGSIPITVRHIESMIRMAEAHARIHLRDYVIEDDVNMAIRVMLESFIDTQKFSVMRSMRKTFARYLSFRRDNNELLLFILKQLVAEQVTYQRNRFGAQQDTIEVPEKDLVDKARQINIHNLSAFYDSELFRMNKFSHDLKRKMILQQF
Data set [8] concerns NCI-H1975. The data set can be described thus: Cell cycle arrest in human NCI-H1975 cells assessed as accumulation in S phase at 140 nM incubated for 72 hrs by propidium iodide base flow cytometry analysis (reference value: 2 %). Type of data set: functional.
Data set [9] addresses T2, DNA replication licensing factor MCM4 (Homo sapiens) (UniProt P33991).
T2 sequence (whole entry): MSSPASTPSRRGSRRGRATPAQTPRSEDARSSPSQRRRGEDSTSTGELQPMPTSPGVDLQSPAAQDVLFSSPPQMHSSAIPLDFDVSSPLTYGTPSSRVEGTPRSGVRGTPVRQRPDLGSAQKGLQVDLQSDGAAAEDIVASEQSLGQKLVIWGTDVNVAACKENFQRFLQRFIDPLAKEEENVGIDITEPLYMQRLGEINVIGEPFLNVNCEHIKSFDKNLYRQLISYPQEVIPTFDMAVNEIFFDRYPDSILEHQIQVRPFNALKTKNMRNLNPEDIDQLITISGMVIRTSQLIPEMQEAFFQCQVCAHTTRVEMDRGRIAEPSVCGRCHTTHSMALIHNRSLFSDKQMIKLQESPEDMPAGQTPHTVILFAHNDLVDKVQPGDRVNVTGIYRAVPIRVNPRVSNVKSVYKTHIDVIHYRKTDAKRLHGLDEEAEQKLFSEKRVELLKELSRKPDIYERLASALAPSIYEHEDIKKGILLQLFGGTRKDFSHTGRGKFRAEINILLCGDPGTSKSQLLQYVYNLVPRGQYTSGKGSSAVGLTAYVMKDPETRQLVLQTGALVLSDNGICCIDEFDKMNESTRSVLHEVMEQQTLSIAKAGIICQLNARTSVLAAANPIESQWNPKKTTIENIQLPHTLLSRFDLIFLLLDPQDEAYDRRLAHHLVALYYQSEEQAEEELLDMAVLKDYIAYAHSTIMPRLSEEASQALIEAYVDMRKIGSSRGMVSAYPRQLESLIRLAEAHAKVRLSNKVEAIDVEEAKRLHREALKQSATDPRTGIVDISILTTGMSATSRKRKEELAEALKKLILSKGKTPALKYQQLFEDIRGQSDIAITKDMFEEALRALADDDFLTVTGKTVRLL
The data set can be described thus: Induction of ubiquitination of MCM4 in human NCI-H1975 cells incubated for 48 hrs by immunoblot analysis (reference value: 1). It is filed as cell-based.

Data set [10] deals with T1, DNA replication licensing factor MCM6 (Homo sapiens). The data set can be described thus: Induction of ubiquitination of MCM6 in human H3255 cells incubated for 24 hrs by immunoblot analysis. Type of data set: cell-based. The note with it: NCI-H3255.
Data set [11] addresses DNA replication licensing factor MCM2 (Homo sapiens) (UniProt P49736). Kind of data set: Induction of ubiquitination of MCM2 in human NCI-H1975 cells incubated for 24 hrs by immunoblot analysis (reference value: 1). Type of data set: cell-based.
Data set [12] has as its system NCI-H1975. Kind of data set: Antiproliferative activity against human NCI-H1975 cells harboring FLAG-tagged MCM2 Q341A mutant assessed as reduction in cell viability incubated for 72 hrs by SRB assay. It is filed as functional, cell-based. The note with it: NCI-H1975, 72 h.
The target of data set [13] is DNA replication licensing factor MCM7 (Homo sapiens) (UniProt P33993). Kind of data set: Induction of ubiquitination of MCM7 in human NCI-H1975 cells incubated for 72 hrs by immunoblot analysis (reference value: 1). It is filed as cell-based.
Another data set relates to PC-9. The data set can be described thus: Antiproliferative activity against human PC9 cells assessed as reduction in cell viability incubated for 72 hrs by SRB assay. It is filed as functional, cell-based. The note with it: PC-9, 72 h.
The target of data set [14] is DNA replication licensing factor MCM2 (Homo sapiens) (UniProt P49736). The data set can be described thus: Induction of ubiquitination of MCM2 in human NCI-H1975 cells incubated for 24 hrs by immunoblot analysis. It is filed as cell-based.

On to `Cc1oc2c(c1C(=O)NCCCn1ccnc1)C(=O)c1ccccc1C2=O`, for which the result in data set [1], in data set [7] and in data set [10] was Active. The IC50 was 71 nM in the data set on NCI-H1975 [2], 150 nM in the data set with NCI-H1975 [12] and below 100 nM with PC-9. The Activity entry in data set [3] was “Non-Toxic”; in data set [4], 0.4; in [6] it was 0.5; in the data set with NCI-H1975 [8] it was 18%; in data set [9] it was 1.1; in data set [11], 0.7. For the same compound, the Activity in data set [13] was 0.4; in [14], “Dose-dependent effect”. The selectivity ratio in [5] was above 10.
